In patent US20250332173A1, “COMPOUNDS AND METHODS FOR MODULATING NUCLEIC ACID SPLICING” (REMIX THERAPEUTICS INC., priority 2021, published 2025):
Where two headings read alike, the source gives them in different places.

Tests used:
HTT mRNA = assay: RT-qPCR splicing assay, HTT canonical junction (CJ) and alternative junction (AJ) mRNA; type: cell-based, human; details: Homo sapiens; for AC50: increase in HTT alternative junction (AJ) mRNA, read-out: HTT AJ AC50
Method in brief: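 24 h treatment, 37 °C/5% CO2; A673 or K562; 11-pt 3-fold series, top 10 uM final; DMSO ≤0.25%. Cell lysis with DNase I, then 1-step RT-qPCR. Housekeeping normalization: PPIA (A673), GAPDH or GUSB (K562).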

MYB = assay: HiBiT protein abundance assay, MYB HiBiT K562 cell line; type: cell-based, human; details: HiBiT K562 cell line, 24 hours, top dose 10 μM; read-out: Effect on protein abundance, MYB (IC50 category)
Method in brief: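 K562 knock-in lines with endogenous HiBiT-tagged target, 10,000 cells/well in IMDM + FBS, treated 24 h at 37° C with 10-point 3-fold dilutions (top 10 μM final; DMSO ≤0.25%). Lytic Nano-Glo HiBiT luminescence normalized to untagged K562 baseline and DMSO controls; IC50 = concentration giving 50% abundance via four-parameter fit.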

[1] = test system: K562 (human chronic myelogenous leukemia) cells; assay: Cell Titer Glo 2.0 cell viability assay; type: cell-based; details: K562 cells, 72 hours, Cell Titer Glo 2.0, read-out: K562 GI50
[2] = decrease in HTT canonical junction (CJ) mRNA, RT-qPCR, read-out: HTT CJ IC50
[3] = Table 5 panel, canonical junction qPCR, compound concentration having 50% response in CJ decrease, read-out: HTT IC50 (decrease in CJ mRNA levels)

IC50 (HTT mRNA; [2])	IC50 (HTT mRNA; [3])	IC50 (MYB)	GI50 ([1]; Homo sapiens, K562, 72 h)	GI50 [1]	SMILES	AC50 (HTT mRNA; RT-qPCR)
100 to 1000 nM	100 to 1000 nM	100 to 1000 nM	100 to 1000 nM		Cc1cn2cc(-c3cc(F)c4c(=O)n(C5CCCNCC5)cnc4c3)cc(F)c2n1 (stereo not drawn) [Compound 353, 3-(azepan-4-yl)-5-fluoro-7-{8-fluoro-2-methylimidazo[1,2-a]pyridin-6-yl}quinazolin-4-one]	100 to 1000 nM
1000 to 10000 nM	1000 to 10000 nM	1000 to 10000 nM	1000 to 10000 nM		Cc1ncc(-c2ccc3c(=O)n(C4CCNCC4)cnc3c2)cn1 [Compound 354, 7-(2-methylpyrimidin-5-yl)-3-(piperidin-4-yl)quinazolin-4(3H)-one]	1000 to 10000 nM
< 100 nM	100 to 1000 nM	< 100 nM	100 to 1000 nM		Cc1cn2nc(-c3cc(C)c4c(=O)n(C5CCNCC5)cnc4c3)cc(C)c2n1 [Compound 355]	100 to 1000 nM
< 100 nM	100 to 1000 nM	< 100 nM	100 to 1000 nM		Cc1cn2nc(-c3cc(F)c4c(=O)n([C@@H]5CCNC6(CC6)C5)cnc4c3)cc(C)c2n1 [Compound 356]	100 to 1000 nM
> 10000 nM	1000 to 10000 nM	1000 to 10000 nM	1000 to 10000 nM		CNc1cc(-c2cc(F)c3nc(C)cn3c2)cc2ncn(C3CCNCC3)c(=O)c12 [Compound 358, 7-{8-fluoro-2-methylimidazo[1,2-a]pyridine-6-yl}-5-(methylamino)-3-(piperidin-4-yl)quinazolin-4-one]	1000 to 10000 nM
1000 to 10000 nM	1000 to 10000 nM	100 to 1000 nM	100 to 1000 nM		CNc1cc(-c2cc(C)c3nc(C)cn3n2)cc2ncn(C3CCNCC3)c(=O)c12 [Compound 359, 7-{2,8-dimethylimidazo[1,2-b]pyridazin-6-yl}-5-(methylamino)-3-(piperidin-4-yl)quinazolin-4-one]	1000 to 10000 nM
> 10000 nM	> 10000 nM	> 10000 nM	1000 to 10000 nM		CNc1cc(-c2cn3cc(C)nc3c(C)n2)cc2ncn(C3CCNCC3)c(=O)c12 [Compound 360, 7-{2,8-dimethylimidazo[1,2-a]pyrazine-6-yl}-5-(methylamino)-3-(piperidin-4-yl)quinazolin-4-one]	> 10000 nM
< 100 nM	< 100 nM	< 100 nM	100 to 1000 nM		Cc1cc(-c2cc(F)c3c(=O)n(C4CCNC5(CC5)C4)cnc3c2)nc2cn(C)nc12 (stereo not drawn) [Compound 361, 3-{4-azaspiro[2.5]octan-7-yl}-7-{2,7-dimethylpyrazolo[4,3-b]pyridin-5-yl}-5-fluoroquinazolin-4-one]	< 100 nM
> 10000 nM	> 10000 nM	1000 to 10000 nM	1000 to 10000 nM		Cc1cn2nc(-c3cc(O)c4c(=O)n(C5CCNC5)cnc4c3)cc(C)c2n1 (stereo not drawn) [Compound 362, 7-{2,8-dimethylimidazo[1,2-b]pyridazin-6-yl}-5-hydroxy-3-(pyrrolidin-3-yl)quinazolin-4-one]	> 10000 nM

Second part, the molecule before the results:

SMILES	IC50 (HTT mRNA; [2])	IC50 (HTT mRNA; [3])	IC50 (MYB)	GI50 ([1]; Homo sapiens, K562, 72 h)	GI50 [1]	AC50 (HTT mRNA; RT-qPCR)
Cc1cn2cc(-c3cc(F)c4c(=O)n(C5CCNCC5)cnc4c3)nc2c(C)n1 [Compound 319]	1000 to 10000 nM	1000 to 10000 nM	100 to 1000 nM	100 to 1000 nM		1000 to 10000 nM
COc1cc(-c2cc(F)c3c(=O)n(C4CCNCC4)cnc3c2)cnn1 [Compound 320]	> 10000 nM	> 10000 nM	> 10000 nM	> 10000 nM		> 10000 nM
Cc1cn2nc(-c3cc(F)c4c(=O)n(C5CCNCC5)ccc4c3)cc(C)c2n1 [Compound 322]	< 100 nM	< 100 nM	< 100 nM	< 100 nM		< 100 nM
Cc1cn2cc(-c3cc(F)c4c(=O)n([C@H]5CCNC[C@H]5F)cnc4c3)cc(F)c2n1 [Compound 338]	1000 to 10000 nM	100 to 1000 nM	100 to 1000 nM	100 to 1000 nM		100 to 1000 nM
Cc1cn2cc(-c3cc(F)c4c(=O)n(C5CCNCC5(F)F)cnc4c3)cc(F)c2n1 (stereo not drawn) [Compound 339]	> 10000 nM	1000 to 10000 nM	> 10000 nM	> 10000 nM		1000 to 10000 nM
Cc1cn2cc(-c3cc(F)c4c(=O)n(N5CCNCC5)cnc4c3)cc(F)c2n1 [Compound 340, 5-fluoro-7-{8-fluoro-2-methylimidazo[1,2-a]pyridin-6-yl}-3-(piperazin-1-yl)quinazolin-4-one]	100 to 1000 nM	100 to 1000 nM	< 100 nM	100 to 1000 nM		100 to 1000 nM
Cc1cn2cc(-c3cc(F)c4c(=O)n(C5=CCNCC5)cnc4c3)cc(F)c2n1 [Compound 342]	100 to 1000 nM	< 100 nM	100 to 1000 nM	< 100 nM		< 100 nM
Cc1cn2nc(-c3cc(N(C)C)c4c(=O)n(C5CCNC6(CC6)C5)cnc4c3)cc(C)c2n1 (stereo not drawn) [Compound 345]	< 100 nM	< 100 nM	> 10000 nM	> 10000 nM		< 100 nM
Cc1cn2cc(-c3cc(F)c4c(=O)n([C@H]5CCN[C@H](C)C5)cnc4c3)cc(F)c2n1 [Compound 346, trans-5-fluoro-7-(8-fluoro-2-methylimidazo[1,2-a]pyridin-6-yl)-3-(2-methylpiperidin-4-yl)quina-zolin-4(3H)-one]	100 to 1000 nM	100 to 1000 nM	< 100 nM	100 to 1000 nM		100 to 1000 nM
Cc1cn2cc(-c3cc(F)c4c(=O)n([C@H]5CCNC[C@@H]5O)cnc4c3)cc(F)c2n1 [Compound 347, 5-fluoro-7-{8-fluoro-2-methylimidazo[1,2-a]pyridin-6-yl}-3-[(3S,4S)-3-hydroxypiperidin-4-yl]quinazolin-4-one]	> 10000 nM	> 10000 nM	1000 to 10000 nM	> 10000 nM		> 10000 nM
Cc1cn2cc(-c3cc(F)c4c(=O)n([C@H]5CNCC[C@@H]5O)cnc4c3)cc(F)c2n1 [Compound 348, 5-fluoro-7-{8-fluoro-2-methylimidazo[1,2-a]pyridin-6-yl}-3-[(3S,4S)-4-hydroxypiperidin-3-yl]quinazolin-4-one]	> 10000 nM	> 10000 nM	> 10000 nM	> 10000 nM		> 10000 nM
Cc1cn2nc(-c3ccc4c(=O)n([C@H]5CCNC6(CC6)C5)cnc4c3)cc(C)c2n1 [Compound 349, 3-[(7S)-4-azaspiro[2.5]octan-7-yl]-7-{2,8-dimethylimidazo[1,2-b]pyridazin-6-yl}quinazolin-4-one]	100 to 1000 nM	100 to 1000 nM	100 to 1000 nM	1000 to 10000 nM		100 to 1000 nM
Cc1cn2nc(-c3ccc4c(=O)n([C@@H]5CCNC6(CC6)C5)cnc4c3)cc(C)c2n1 [Compound 350, 3-[(7R)-4-azaspiro[2.5]octan-7-yl]-7-{2,8-dimethylimidazo[1,2-b]pyridazin-6-yl}quinazolin-4-one]	< 100 nM	< 100 nM	< 100 nM		100 to 1000 nM	< 100 nM
Cc1cn2nc(-c3cc(F)c4c(=O)n(C5CCNC6(CC6)C5)cnc4c3)cc(C)c2n1 (stereo not drawn) [Compound 351]	< 100 nM	< 100 nM	< 100 nM	100 to 1000 nM		< 100 nM
Cc1cn2cc(-c3cc(F)c4c(=O)n(C5CNCCC5=O)cnc4c3)cc(F)c2n1 (stereo not drawn) [Compound 352, 5-fluoro-7-{8-fluoro-2-methylimidazo[1,2-a]pyridin-6-yl}-3-(4-oxopiperidin-3-yl)quinazolin-4-one]	> 10000 nM	> 10000 nM	> 10000 nM	> 10000 nM		> 10000 nM
